Laboratory results reported in PubChem BioAssay (NCI).
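48-hour exposure; five concentrations; linearly interpolated endpoints. Definition used: TGI = concentration required for complete inhibition of growth.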

Assays:
Assay in all cases: DTP human tumour cell line panel, 48 h
786-0 renal = tested on: 786-0 renal
A498 renal = tested on: A498 renal
A549 NSCLC = tested on: A549 NSCLC
ACHN renal = tested on: ACHN renal
BT-549 breast = tested on: BT-549 breast
CAKI-1 renal = tested on: CAKI-1 renal
CCRF-CEM leukemia = tested on: CCRF-CEM leukemia
COLO 205 colon = tested on: COLO 205 colon
DU-145 prostate = tested on: DU-145 prostate
EKVX NSCLC = tested on: EKVX NSCLC
HCC-2998 colon = tested on: HCC-2998 colon
HCT-116 colon = tested on: HCT-116 colon
HCT-15 colon = tested on: HCT-15 colon
HL-60(TB) leukemia = tested on: HL-60(TB) leukemia
HOP-62 NSCLC = tested on: HOP-62 NSCLC
HOP-92 NSCLC = tested on: HOP-92 NSCLC
HS 578T breast = tested on: HS 578T breast
HT29 colon = tested on: HT29 colon
IGROV1 ovarian = tested on: IGROV1 ovarian
K-562 leukemia = tested on: K-562 leukemia
KM12 colon = tested on: KM12 colon
LOX IMVI melanoma = tested on: LOX IMVI melanoma
M14 melanoma = tested on: M14 melanoma
MALME-3M melanoma = tested on: MALME-3M melanoma
MCF7 breast = tested on: MCF7 breast
MDA-MB-231 breast = tested on: MDA-MB-231 breast
MDA-MB-435 = tested on: MDA-MB-435
MDA-N = tested on: MDA-N
MOLT-4 leukemia = tested on: MOLT-4 leukemia
NCI-H226 lung = tested on: NCI-H226 lung
NCI-H23 lung = tested on: NCI-H23 lung
NCI-H460 lung = tested on: NCI-H460 lung
NCI-H522 lung = tested on: NCI-H522 lung
NCI/ADR-RES ovarian = tested on: NCI/ADR-RES ovarian
OVCAR-3 ovarian = tested on: OVCAR-3 ovarian
OVCAR-4 ovarian = tested on: OVCAR-4 ovarian
OVCAR-5 ovarian = tested on: OVCAR-5 ovarian
OVCAR-8 ovarian = tested on: OVCAR-8 ovarian
PC-3 prostate = tested on: PC-3 prostate
RPMI-8226 leukemia = tested on: RPMI-8226 leukemia
RXF 393 renal = tested on: RXF 393 renal
SF-268 CNS = tested on: SF-268 CNS
SF-295 CNS = tested on: SF-295 CNS
SF-539 CNS = tested on: SF-539 CNS
SK-MEL-2 melanoma = tested on: SK-MEL-2 melanoma
SK-MEL-28 melanoma = tested on: SK-MEL-28 melanoma
SK-MEL-5 melanoma = tested on: SK-MEL-5 melanoma
SK-OV-3 ovarian = tested on: SK-OV-3 ovarian
SN12C renal = tested on: SN12C renal
SNB-19 CNS = tested on: SNB-19 CNS
SNB-75 CNS = tested on: SNB-75 CNS
SR leukemia = tested on: SR leukemia
SW-620 colon = tested on: SW-620 colon
T-47D breast = tested on: T-47D breast
TK-10 renal = tested on: TK-10 renal
U251 CNS = tested on: U251 CNS
UACC-257 melanoma = tested on: UACC-257 melanoma
UACC-62 melanoma = tested on: UACC-62 melanoma
UO-31 renal = tested on: UO-31 renal

Nc1nc(Cl)cc(Oc2ccc(Cl)cc2)n1
TGI (786-0 renal): > 100 µM | TGI (A498 renal): > 100 µM | TGI (A549 NSCLC): > 100 µM | TGI (ACHN renal): > 100 µM | TGI (BT-549 breast): > 100 µM | TGI (CAKI-1 renal): > 100 µM | TGI (CCRF-CEM leukemia): > 100 µM | TGI (COLO 205 colon): > 100 µM | TGI (DU-145 prostate): > 100 µM | TGI (EKVX NSCLC): > 100 µM | TGI (HCC-2998 colon): > 100 µM | TGI (HCT-116 colon): > 100 µM | TGI (HCT-15 colon): > 100 µM | TGI (HL-60(TB) leukemia): > 100 µM | TGI (HOP-62 NSCLC): > 100 µM | TGI (HOP-92 NSCLC): > 100 µM | TGI (HS 578T breast): > 100 µM | TGI (HT29 colon): > 100 µM | TGI (IGROV1 ovarian): > 100 µM | TGI (K-562 leukemia): > 100 µM | TGI (KM12 colon): > 100 µM | TGI (LOX IMVI melanoma): > 100 µM | TGI (M14 melanoma): > 100 µM | TGI (MALME-3M melanoma): > 100 µM | TGI (MCF7 breast): > 100 µM | TGI (MDA-MB-231 breast): > 100 µM | TGI (MDA-MB-435): > 100 µM | TGI (MDA-N): > 100 µM | TGI (MOLT-4 leukemia): > 100 µM | TGI (NCI-H226 lung): > 100 µM | TGI (NCI-H23 lung): > 100 µM | TGI (NCI-H460 lung): > 100 µM | TGI (NCI-H522 lung): > 72.8 µM | TGI (NCI/ADR-RES ovarian): > 100 µM | TGI (OVCAR-3 ovarian): > 100 µM | TGI (OVCAR-4 ovarian): > 100 µM | TGI (OVCAR-5 ovarian): > 100 µM | TGI (OVCAR-8 ovarian): > 100 µM | TGI (PC-3 prostate): > 100 µM | TGI (RPMI-8226 leukemia): > 100 µM | TGI (RXF 393 renal): > 100 µM | TGI (SF-268 CNS): > 100 µM | TGI (SF-295 CNS): > 100 µM | TGI (SF-539 CNS): > 100 µM | TGI (SK-MEL-2 melanoma): > 100 µM | TGI (SK-MEL-28 melanoma): > 100 µM | TGI (SK-MEL-5 melanoma): > 100 µM | TGI (SK-OV-3 ovarian): > 100 µM | TGI (SN12C renal): > 100 µM | TGI (SNB-19 CNS): > 100 µM | TGI (SNB-75 CNS): > 100 µM | TGI (SR leukemia): > 100 µM | TGI (SW-620 colon): > 100 µM | TGI (T-47D breast): > 100 µM | TGI (TK-10 renal): > 100 µM | TGI (U251 CNS): > 100 µM | TGI (UACC-257 melanoma): > 100 µM | TGI (UACC-62 melanoma): > 100 µM | TGI (UO-31 renal): > 100 µM

Clc1cccc(C=NC23CC4CC(CC(C4)C2)C3)c1Cl
TGI (786-0 renal): > 10 µM | TGI (A498 renal): > 10 µM | TGI (A549 NSCLC): > 10 µM | TGI (ACHN renal): > 10 µM | TGI (BT-549 breast): > 10 µM | TGI (CAKI-1 renal): > 10 µM | TGI (CCRF-CEM leukemia): > 10 µM | TGI (COLO 205 colon): > 10 µM | TGI (DU-145 prostate): > 10 µM | TGI (EKVX NSCLC): > 10 µM | TGI (HCC-2998 colon): > 10 µM | TGI (HCT-116 colon): > 10 µM | TGI (HCT-15 colon): > 10 µM | TGI (HL-60(TB) leukemia): > 10 µM | TGI (HOP-62 NSCLC): > 10 µM | TGI (HOP-92 NSCLC): > 10 µM | TGI (HS 578T breast): > 10 µM | TGI (HT29 colon): > 10 µM | TGI (IGROV1 ovarian): > 10 µM | TGI (K-562 leukemia): > 10 µM | TGI (KM12 colon): > 10 µM | TGI (LOX IMVI melanoma): > 10 µM | TGI (M14 melanoma): > 10 µM | TGI (MALME-3M melanoma): > 10 µM | TGI (MCF7 breast): > 10 µM | TGI (MDA-MB-231 breast): > 10 µM | TGI (MDA-MB-435): > 10 µM | TGI (MDA-N): > 10 µM | TGI (NCI-H226 lung): > 10 µM | TGI (NCI-H23 lung): > 10 µM | TGI (NCI-H460 lung): > 10 µM | TGI (NCI-H522 lung): > 10 µM | TGI (NCI/ADR-RES ovarian): > 10 µM | TGI (OVCAR-3 ovarian): > 10 µM | TGI (OVCAR-4 ovarian): > 10 µM | TGI (OVCAR-5 ovarian): > 10 µM | TGI (OVCAR-8 ovarian): > 10 µM | TGI (PC-3 prostate): > 10 µM | TGI (RPMI-8226 leukemia): > 10 µM | TGI (RXF 393 renal): > 10 µM | TGI (SF-268 CNS): > 10 µM | TGI (SF-295 CNS): > 10 µM | TGI (SF-539 CNS): > 10 µM | TGI (SK-MEL-2 melanoma): > 10 µM | TGI (SK-MEL-28 melanoma): > 10 µM | TGI (SK-MEL-5 melanoma): > 10 µM | TGI (SK-OV-3 ovarian): > 10 µM | TGI (SN12C renal): > 10 µM | TGI (SNB-19 CNS): > 10 µM | TGI (SNB-75 CNS): > 10 µM | TGI (SR leukemia): 2.63 µM | TGI (SW-620 colon): > 10 µM | TGI (T-47D breast): > 10 µM | TGI (TK-10 renal): > 10 µM | TGI (U251 CNS): > 10 µM | TGI (UACC-257 melanoma): > 10 µM | TGI (UACC-62 melanoma): > 10 µM
